Where two headings read alike, the source gives them in different places.
Molecular target: T1, P2X7 receptor (Homo sapiens, UniProt Q99572)
T1 construct: host or cells: THP-1 cells differentiated with LPS and IFN-γ
T1 sequence (Q99572 1-595): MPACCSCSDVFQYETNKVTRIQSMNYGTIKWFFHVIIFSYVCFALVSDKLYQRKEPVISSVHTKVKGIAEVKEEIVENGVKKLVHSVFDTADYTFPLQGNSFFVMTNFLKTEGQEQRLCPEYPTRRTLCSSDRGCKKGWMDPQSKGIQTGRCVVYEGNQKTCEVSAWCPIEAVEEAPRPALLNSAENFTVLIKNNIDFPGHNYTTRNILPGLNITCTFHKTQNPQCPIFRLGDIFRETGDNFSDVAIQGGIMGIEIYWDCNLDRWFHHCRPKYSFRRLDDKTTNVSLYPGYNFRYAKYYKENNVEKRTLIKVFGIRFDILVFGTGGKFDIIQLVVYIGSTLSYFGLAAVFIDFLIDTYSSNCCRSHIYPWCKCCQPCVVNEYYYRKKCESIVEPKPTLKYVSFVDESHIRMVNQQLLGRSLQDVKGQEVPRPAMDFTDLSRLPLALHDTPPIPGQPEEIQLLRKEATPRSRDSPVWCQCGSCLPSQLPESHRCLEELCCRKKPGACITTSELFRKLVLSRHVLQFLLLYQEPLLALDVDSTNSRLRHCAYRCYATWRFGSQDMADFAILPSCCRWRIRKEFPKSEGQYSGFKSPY
Assay: IL-1β release assay in differentiated THP-1 cells stimulated with BzATP (Example 9)
Format: cell-based
Parameters: inhibition: dose or concentration left out as unconfirmed
Conditions: for inhibition at 0.3 µM: 0.3 μM compound, read-out: IL-1β % Inhib. @ 0.3 μM; for inhibition: THP-1, read-out: IL-1β % Inhib.
Method in brief: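 IC50 derived by four-parameter logistic fit of percent inhibition of IL-1β release, measured by ELISA after 45 min stimulation with 250 uM BzATP. Cells: THP-1 differentiated 16 h with 100 ng/mL LPS plus IFN-γ, LPS-primed 2 h, compound added 30 min beforehand.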

[1] = differentiated THP-1 cells, BzATP 250 uM, symbols + to ++++

Compound | inhibition at 0.3 µM [1] [%] | inhibition [%] | other results
CC(=O)OCCn1ccc2c(NC(=O)CCc3cc(C(F)(F)F)cc(C(F)(F)F)c3)cccc2c1=O [Compound 1376] | 0 to 25 | – | IC50 (THP-1 cells, BzATP-stimulated IL-1β release, four parameter logistic fit): 731 nM
CC(C)(C)Cn1ccc2c(NC(=O)c3cc4ccccc4o3)cccc2c1=O [Compound 1264] | 0 to 25 | – | –
CC(C)(C)Cn1ccc2c(NC(=O)Cc3ccccc3Cl)cccc2c1=O [Compound 1253] | 0 to 25 | – | –
Cc1ccc(CCC(=O)Nc2cccc3c(=O)n(CC4CCOCC4)ccc23)c(C)c1 [Compound 1134] | – | – | inhibition at 0.3 µM (differentiated THP-1 cells, BzATP 250 uM, '+' class symbols): 0 to 25%
COc1ccc(CC(=O)Nc2cccc3c(=O)n(Cc4ccc(OC(F)(F)F)cc4)ccc23)c(OC)c1 [Compound 1601] | – | – | inhibition at 0.1 µM (0.1 μM compound, differentiated THP-1 cells, BzATP 250 uM, "*" class symbols, read-out: IL-1β % Inhib. ("*" symbols: at 0.1 μM)): 0 to 25%

More lines, main results first:

inhibition at 0.3 µM [1] [%] | inhibition [%] | Compound | other results
– | 0 to 25 | CN1CCC(Cn2ccc3c(NC(=O)c4ccc5ccccc5c4)cccc3c2=O)CC1 [Compound 1471] | –
– | 0 to 25 | O=C(Cc1ccccc1Cl)Nc1cccc2c(=O)n(CCCN3CCCC3=O)ccc12 [Compound 1519] | –
– | 0 to 25 | O=C(CCCc1ccccc1)Nc1cccc2c(=O)n(CCCN3CCCC3=O)ccc12 [Compound 1525] | –
